“And” between values parts separate entries of the source, which are not always exact repeats. Equal entries are not always repeated. Where two headings read alike, the source gives them in different places.
Columns and labels:
Type in all cases: cell-based, human
HBL-100/Dox cells [1] = assay: Hoechst 33342 / TMRE fluorescent microscopy, HBL-100/Dox
Protocol: (§1) The DNA marker, termed Hoechst 33342 Ready Flow Reagent, was used as a stock solution (Invitrogen, ThermoFisher Scientific, USA). The mitochondrial marker, LumiTracker Mito TMRE (tetramethylrhodamine, ethyl ester; Lumiprobe, Moscow, Russia), was dissolved in DMSO as 1.0 mM stock solution. The marker of reactive oxygen species, H2DCFDA (Lumiprobe, Moscow, Russia), was dissolved in DMSO as 100.0 μM stock solution. After incubation, the cells were incubated with FBS-free culture medium containing the dye mixture of Hoechst 33342 (final concentration 1.0 μM) and LumiTracker Mito TMRE (final concentration 1.0 μM), or H2DCFDA dye taken alone (final concentration 1.0 μM), for 30 min at 37 °C in darkness. Fluorescence, at 420 nm (Hoechst 33342), at 510 nm (TMRE), and at 575 nm (H2DCFDA), of the test cultures (including controls) was analyzed immediately using a fluorescence microscope CKX 53 (Olympus, Tokyo, Japan). The TMRE fluorescence intensity was quantified using Fiji (ImageJ).

HBL-100 cells [2] = assay: Hoechst 33342 / TMRE fluorescent microscopy, HBL-100
Protocol: as §1

HBL-100 = assay: MTT cell viability assay, HBL-100; details: for IC50: Homo sapiens
Protocol: The cells were cultured in a humidified CO2 incubator (model 460-CE; Thermo Fisher Scientific, Waltham, MA, USA) at +37 °C and 5% CO2.
The percentage of the viable cells was calculated according to the following equation: cell viability (%) = 100 × (mean absorbance in the treatment group/mean absorbance in the control group). The results were expressed pictorially using Prism 6.0 (GraphPad Software, Boston, MA, USA).

A549 = assay: MTT cell viability assay, A549; details: for IC50: Homo sapiens
Text: (§2) Blokhin National Medical Research Center of Oncology (the Ministry of Health of the Russian Federation, Moscow).

HBL-100/Dox cells [3] = assay: Annexin V-FITC/PI assay, HBL-100/Dox; details: 16 h
Protocol: (§3) Briefly, after exposing the cells to the tested and control compounds for 16 h, the cells were detached with accutase (HiMedia Laboratories, Maharashtra, India) and washed with cold PBS. Then, the cells were re-suspended in 100 μL of 1 × Binding Buffer at concentration 1 × 10^6 cells/mL and incubated with 5 μL Annexin V-FITC and 5 μL propidium iodide (PI) for 15 min at room temperature in darkness. After incubation, 400 μL of 1 × Binding Buffer was added to each tube. The samples were analyzed by flow cytometry (CytoFlex S, Beckman Coulter, Brea, CA, USA) within 1 h of staining, and the findings were analyzed using a trial version of the Kaluza software (Beckman Coulter, Brea, CA, USA).

[4] = tested on: Active Caspase-3 in HBL-100/Dox cells; assay: Flow cytometric analysis of active caspase-3, HBL-100/Dox; details: for gMIF, Active Caspase-3: 24 h
Protocol: The cells were detached with accutase (HiMedia Laboratories, Maharashtra, India) and then fixed with 70% ice cold ethanol followed by overnight incubation at 4 °C. The cells were washed twice with PBS, permeabilized using 0.1% Triton X-100 in PBS solution, and subsequently stained with 5 μL of the BD Horizon™ BV605 Rabbit Anti-Active Caspase-3 antibody (BD Biosciences, Franklin Lakes, NJ, USA). The cells were then washed, resuspended in PBS, and analyzed using a CytoFlex S flow cytometer (Beckman Coulter, Brea, CA, USA). Cell fluorescence was evaluated on a CytoFlex S flow cytometer (Beckman Coulter, Brea, CA, USA). The results were analyzed using FlowJo software (ver. X 10.0.7r2, FlowJo Software, San Jose, CA, USA) and represented as geometric mean fluorescence intensity (gMFI).

HBL-100 cells [5] = assay: Annexin V-FITC/PI assay, HBL-100; details: 16 h
Protocol: as §3

HCT116 = assay: MTT cell viability assay, HCT116; details: for IC50: Homo sapiens, HCT-116
Text: as §2

MCF-7 = assay: MTT cell viability assay, MCF-7; details: for IC50: Homo sapiens, MCF7
Text: as §2

**Q.** What does the source list for `COC(=O)[C@]12CC[C@@H](C(C)C)[C@@H]1[C@H]1CC[C@@H]3[C@@](C)(CCC#N)[C@H](C(=O)C(Br)Br)CC[C@@]3(C)[C@]1(C)CC2` [compound 31, 2-Cyano-24,24-dibromo-4-oxo-3,4-seco-3,23-dinorlupan-28-oic acid methyl ester]?
**A.** mitochondrial membrane potential (MMP), TMRE fluorescence intensity (HBL-100/Dox cells [1]; 16 h, vs untreated control): significant (p < 0.05) reduction in MMP; number of cells with nuclear morphology changes (HBL-100/Dox cells [1]; Hoechst 33342, 16 h, IC50 values (MK 1.8 µM)): 33.1%; mitochondrial membrane potential (MMP), TMRE fluorescence intensity (HBL-100 cells [2]; 16 h, vs untreated control): significant (p < 0.05) reduction in MMP; number of cells with nuclear morphology changes (HBL-100 cells [2]; Hoechst 33342, 16 h, IC50 values (MK 1.0 µM)): 21.2%; death of the cells (HBL-100; HBL-100, MK at IC50 dose, after 72 h exposure): 50%; IC50 (HBL-100; HBL-100, MTT, 72 h of treatment, read-out: IC50 Values (Mean ± SD)): 1 ± 0.1 µM; IC50 (HBL-100; Table S1, HBL-100, read-out: IC50 (mean ± SD)): 0.99 ± 0.001 µM; Selectivity index (SI) (HBL-100; ratio of IC50 values healthy (HEK293) / HBL-100): 11.50; IC50 (A549; A549, MTT, 72 h of treatment, read-out: IC50 Values (Mean ± SD)): 7 ± 0.2 µM; IC50 (A549; Table S1, A549, read-out: IC50 (mean ± SD)): 7.01 ± 0.21 µM; Selectivity index (SI) (A549; ratio of IC50 values healthy (HEK293) / A549): 1.64; Dead cells (HBL-100/Dox cells [3]; dose 2xIC50): 4.59±0.45%; Viable cells (HBL-100/Dox cells [3]; dose 2xIC50): 78.69 ± 1.29%; Early apoptotic cells (HBL-100/Dox cells [3]; dose 2xIC50, listed as MK): 5.50±0.44%; Late apoptotic cells (HBL-100/Dox cells [3]; dose 2xIC50, listed as MK): 10.94 ± 0.81% and 10.94±0.82%; Dead cells (HBL-100/Dox cells [3]; dose IC50): 2.52±0.08%; Viable cells (HBL-100/Dox cells [3]; dose IC50): 87.82 ± 0.44%; Early apoptotic cells (HBL-100/Dox cells [3]; dose IC50, listed as MK): 5.04 ± 0.51% and 5.04±0.52%; Late apoptotic cells (HBL-100/Dox cells [3]; dose IC50, listed as MK): 4.74 ± 0.44% and 4.74±0.04%; gMIF, Active Caspase-3 ([4]; dose 2×IC50): 19252±347; gMIF, Active Caspase-3 ([4]; dose IC50): 13428±202; caspase-3 activation in comparison to the HBL-100 cells ([4]; after 24 h of MK treatment): doubly pronounced; Dead cells (HBL-100 cells [5]; dose 2xIC50): 5.59±0.46%; Late apoptotic cells (HBL-100 cells [5]; dose 2xIC50): 10.37 ± 1.01%; Viable cells (HBL-100 cells [5]; dose 2xIC50): 76.73 ± 1.18%; Early apoptotic cells (HBL-100 cells [5]; dose 2xIC50, listed as MK): 7.29 ± 0.28% and 7.29±0.29%; Dead cells (HBL-100 cells [5]; dose IC50): 2.69±0.13%; Late apoptotic cells (HBL-100 cells [5]; dose IC50): 3.59 ± 0.82%; Early apoptotic cells (HBL-100 cells [5]; dose IC50, listed as MK): 4.43±0.49%; Viable cells (HBL-100 cells [5]; dose IC50, listed as MK): 89.57 ± 0.93% and 89.58±0.94%; IC50 (HCT116; HCT116, MTT, 72 h of treatment, read-out: IC50 Values (Mean ± SD)): 3.9 ± 0.1 µM; IC50 (HCT116; Table S1, HCT116, read-out: IC50 (mean ± SD)): 3.86 ± 0.08 µM; Selectivity index (SI) (HCT116; ratio of IC50 values healthy (HEK293) / HCT116): 2.95; IC50 (MCF-7; MCF-7, MTT, 72 h of treatment, read-out: IC50 Values (Mean ± SD)): 7.1 ± 0.7 µM; IC50 (MCF-7; Table S1, MCF-7, read-out: IC50 (mean ± SD)): 7.06 ± 0.72 µM; Selectivity index (SI) (MCF-7; ratio of IC50 values healthy (HEK293) / MCF-7): 1.62

From paper PMC10298530, “Synthesis and Anticancer Activity of A-Ring-Modified Derivatives of Dihydrobetulin” (International Journal of Molecular Sciences, 2023)
